Measurements reported in ChEMBL document CHEMBL3091394, “Novel tacrine-ebselen hybrids with improved cholinesterase inhibitory, hydrogen peroxide and peroxynitrite scavenging activity” (Bioorg Med Chem Lett, 2013).
Activity calls are given as the source filed them. The calls are words filed in the database; no cut-off is given here.

Experiments:
[1] = Antioxidant activity assessed as hydrogen peroxide radical scavenging activity at 12.5 uM after 10 hrs by horseradish peroxidase assay; assay type: functional
[2] = Antioxidant activity assessed as hydrogen peroxide radical scavenging activity at 25 uM after 10 hrs by horseradish peroxidase assay; assay type: functional
[3] = Antioxidant activity assessed as pyrogallol red dye bleaching-induced peroxynitrite scavenging activity up to 62.5 uM relative to ebselen; assay type: functional
[4] = Antioxidant activity assessed as hydrogen peroxide radical scavenging activity at 20 to 100 uM after 10 hrs by horseradish peroxidase assay; assay type: functional
Acetylcholinesterase [5] = target: Acetylcholinesterase (Homo sapiens, UniProt P22303); test: Inhibition of human AChE using acetylthiocholine chloride as substrate preincubated for 15 mins by Ellman's method
Acetylcholinesterase (Homo sapiens, UniProt P22303), sequence (P22303 whole entry): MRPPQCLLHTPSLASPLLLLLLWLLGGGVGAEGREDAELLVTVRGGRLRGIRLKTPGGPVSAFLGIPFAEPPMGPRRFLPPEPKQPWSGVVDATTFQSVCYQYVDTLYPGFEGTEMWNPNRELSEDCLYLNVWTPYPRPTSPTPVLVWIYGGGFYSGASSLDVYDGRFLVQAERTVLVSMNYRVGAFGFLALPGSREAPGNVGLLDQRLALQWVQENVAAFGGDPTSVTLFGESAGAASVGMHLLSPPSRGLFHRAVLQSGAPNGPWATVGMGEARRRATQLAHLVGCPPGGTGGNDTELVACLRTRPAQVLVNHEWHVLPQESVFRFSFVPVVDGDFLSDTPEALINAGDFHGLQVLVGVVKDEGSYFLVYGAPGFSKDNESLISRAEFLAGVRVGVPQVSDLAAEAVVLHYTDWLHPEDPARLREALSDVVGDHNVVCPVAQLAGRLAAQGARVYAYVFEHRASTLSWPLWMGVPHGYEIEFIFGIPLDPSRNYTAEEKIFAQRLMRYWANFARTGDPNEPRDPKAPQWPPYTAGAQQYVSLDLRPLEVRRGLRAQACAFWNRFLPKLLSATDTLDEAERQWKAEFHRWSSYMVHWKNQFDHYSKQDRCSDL

Cholinesterase = Cholinesterase (Equus caballus, UniProt P81908)
Cholinesterase, sequence (P81908 whole entry): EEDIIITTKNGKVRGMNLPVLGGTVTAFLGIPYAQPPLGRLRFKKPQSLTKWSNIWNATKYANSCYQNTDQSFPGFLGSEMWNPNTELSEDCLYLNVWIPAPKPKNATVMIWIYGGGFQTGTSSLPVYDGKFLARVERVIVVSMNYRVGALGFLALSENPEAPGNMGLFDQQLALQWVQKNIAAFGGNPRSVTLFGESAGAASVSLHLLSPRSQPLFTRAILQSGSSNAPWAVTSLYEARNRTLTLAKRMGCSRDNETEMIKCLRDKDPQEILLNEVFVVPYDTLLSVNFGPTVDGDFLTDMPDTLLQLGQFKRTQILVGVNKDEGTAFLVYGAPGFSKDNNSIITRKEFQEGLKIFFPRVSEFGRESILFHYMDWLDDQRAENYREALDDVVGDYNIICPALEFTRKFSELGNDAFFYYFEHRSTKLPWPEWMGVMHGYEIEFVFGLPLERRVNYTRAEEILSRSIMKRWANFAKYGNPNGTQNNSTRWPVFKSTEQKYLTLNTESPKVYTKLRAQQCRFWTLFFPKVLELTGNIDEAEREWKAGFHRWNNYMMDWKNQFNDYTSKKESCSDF
Description: Inhibition of equine serum BuChE using butylthiocholine chloride as substrate preincubated for 15 mins by Ellman's method

Acetylcholinesterase [6] = target: Acetylcholinesterase (Electrophorus electricus, UniProt O42275)
Acetylcholinesterase (Electrophorus electricus, UniProt O42275), sequence (O42275 whole entry): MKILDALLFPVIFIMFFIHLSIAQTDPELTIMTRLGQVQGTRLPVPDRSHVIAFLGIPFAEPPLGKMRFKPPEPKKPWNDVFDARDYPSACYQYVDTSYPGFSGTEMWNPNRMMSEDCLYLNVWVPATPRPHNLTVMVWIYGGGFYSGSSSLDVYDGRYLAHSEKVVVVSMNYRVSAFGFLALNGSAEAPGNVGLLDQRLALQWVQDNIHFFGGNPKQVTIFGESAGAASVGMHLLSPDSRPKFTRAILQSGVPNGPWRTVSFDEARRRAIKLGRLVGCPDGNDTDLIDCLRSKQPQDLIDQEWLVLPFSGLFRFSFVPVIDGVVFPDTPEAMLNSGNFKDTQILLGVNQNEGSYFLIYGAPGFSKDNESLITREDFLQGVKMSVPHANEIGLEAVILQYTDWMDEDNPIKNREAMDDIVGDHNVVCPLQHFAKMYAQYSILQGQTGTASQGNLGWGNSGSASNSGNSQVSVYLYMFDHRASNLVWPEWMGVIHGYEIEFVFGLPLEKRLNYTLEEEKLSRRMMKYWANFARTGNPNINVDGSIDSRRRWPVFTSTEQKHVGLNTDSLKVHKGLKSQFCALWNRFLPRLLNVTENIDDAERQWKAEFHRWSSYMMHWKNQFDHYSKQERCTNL
Description: Inhibition of electric eel AChE using acetylthiocholine chloride as substrate preincubated for 15 mins by Ellman's method

[7] = Cytotoxicity against human HSC assessed as cell viability at 5 to 10 uM after 24 hrs by MTT assay

Row | Compound | Activity [1] | Activity [2] [%] | Ratio [3] | Activity [4] | IC50 (Acetylcholinesterase [5]) [nM] | IC50 (Cholinesterase) [nM] | IC50 (Acetylcholinesterase [6]) [nM] | Activity [7]
1 | O=c1c2ccccc2[se]n1CCCCCCNc1c2c(nc3ccccc13)CCCC2 | Active | 70 | 1.17 | Active | 19.5 | 4.37 | 6.32 | 
2 | COc1cc2[se]n(CCCCCCNc3c4c(nc5ccccc35)CCCC4)c(=O)c2cc1OC | Active | 83.7 | 1.26 | Active | 15.1 | 2.8 | 2.55 | Non-toxic
3 | O=c1c2ccccc2[se]n1CCCCCNc1c2c(nc3ccccc13)CCCC2 |  |  |  |  |  | 4.52 | 70.8 | 
4 | O=c1c2ccccc2[se]n1CCCCCCCCNc1c2c(nc3ccccc13)CCCC2 |  |  |  |  |  | 16.6 | 24.1 | 
5 | O=c1c2ccccc2[se]n1CCCCNc1c2c(nc3ccccc13)CCCC2 |  |  |  |  |  | 4.94 | 152 | 
6 | O=c1c2ccccc2[se]n1CCNc1c2c(nc3ccccc13)CCCC2 |  |  |  |  |  | 38.9 | 657 | 
7 | c1ccc2c(NCCCCCCCNc3c4c(nc5ccccc35)CCCC4)c3c(nc2c1)CCCC3 |  |  |  |  |  | 4.08 | 0.17 | 
8 | O=c1c2ccccc2[se]n1CCCCCCCNc1c2c(nc3ccccc13)CCCC2 |  |  |  |  |  | 14 | 26.5 | 
9 | O=c1c2ccccc2[se]n1CCCCCCCCCNc1c2c(nc3ccccc13)CCCC2 |  |  |  |  |  | 25.8 | 32 | 
10 | O=c1c2ccccc2[se]n1CCCNc1c2c(nc3ccccc13)CCCC2 |  |  |  |  |  | 28.5 | 423 | 
11 | O=c1c2ccccc2[se]n1-c1ccccc1 | Active | 89.7 |  | Active |  |  |  | 
